Measured values reported in patent publication US4145444A, “Anti-inflammatory agent of benzoyl derivative” (priority 1977, dated 1979).
Where two headings read alike, the source gives them in different places.

Legend:
hind paws of male rats = assay: Anti-inflammatory effect: acute carragheenin edema method; format: in vivo; conditions: for anti-inflammatory effect, inhibition rate (ED50), in words: rat, in vivo; for inhibition in vivo at 100 mg/kg: Rattus norvegicus, read-out: Anti-inf.: edema inhibition rate
Description: The edema was induced by subcutaneous injection of 1% carragheenin suspension in saline to the hind paws of male rats weighting 150 to 180 g. Each sample was orally given at the dosage of 100 mg/kg just before the inoculation of carragheenin.

platelet = assay: Blood platelet aggregation inhibiting effect (collagen-induced); format: cell-based, rabbits; conditions: 10^-4 mole, collagen inducer, rabbit PRP
Description: Male rabbits (Japan original white strain 3.3 to 3.6 kg) were anesthetized with Thiopental sodium and blood was sampled from the carotid artery.

[1] = 100 mg/kg oral, carragheenin edema, male rats (Table 2')

Row | Structure (SMILES) | inhibition in vivo at 100 mg/kg (hind paws of male rats; [1]) [%] | other results
1 | Cc1cc(C)c(C(=O)c2ccccc2F)c(C)c1 [Active ingredient No. 11, 2-Fluoro-2',4',6'-trimethyl-benzophenone] | – | anti-inflammatory effect, inhibition rate (ED50), in words (hind paws of male rats): especially high inhibition rate (ED50)
2 | CCCc1ccc(C(=O)c2ccccc2Cl)cc1 [compound 132] | 14.9 | –
3 | CCCCCc1ccc(C(=O)c2cccc(F)c2)cc1 [compound 124] | 23.5 | –
4 | O=C(c1ccccc1)c1ccccc1F [Active ingredient No. 15, 2-fluorobenzophenone] | – | anti-inflammatory effect, inhibition rate (ED50), in words (hind paws of male rats): especially high inhibition rate (ED50)
5 | Cc1ccc(C(=O)c2ccc(I)cc2)c(C)c1 [compound 165] | 19.2 | –
6 | Cc1ccc(C(=O)c2cccc(F)c2)c(C)c1 [compound 126] | 27.7 | –
7 | Cc1cc(C)c(C(=O)c2ccc(Br)cc2)c(C)c1 [compound 153] | 27.8 | –
8 | CCCCCc1ccc(C(=O)c2cccc(Cl)c2)cc1 [compound 140] | 14.9 | –
9 | CC(C)Cc1ccc(C(=O)c2ccccc2F)cc1 [compound 118] | 32.7 | –
10 | CCCCCCCCc1ccc(C(=O)c2cccc(Br)c2)cc1 [compound 148] | 36.3 | –
11 | CCCCc1ccc(C(=O)c2ccccc2Br)cc1 [compound 143] | 45.4 | –
12 | CCCCCCCCc1ccc(C(=O)c2ccc(I)cc2)cc1 [compound 164] | 29 | –
13 | CCCCCCCCc1ccc(C(=O)c2cccc(I)c2)cc1 [compound 161] | – | inhibition in vivo at 100 mg/kg (hind paws of male rats; po): 20.9%
14 | CCC(C)c1ccc(C(=O)c2ccccc2F)cc1 (stereo not shown) [compound 119] | 60.7 | –
15 | Cc1cc(C)c(C(=O)c2ccc(F)cc2)c(C)c1 [compound 131] | 33.6 | –
16 | Cc1cc(C)c(C(=O)c2cccc(I)c2)c(C)c1 [compound 163] | 16.4 | –
17 | CCCCc1ccc(C(=O)c2ccccc2I)cc1 [compound 155] | 31.8 | –

Row | Structure (SMILES) | inhibition in vivo at 100 mg/kg (hind paws of male rats; [1]) [%] | other results
18 | CCCCCCc1ccc(C(=O)c2ccc(C)cc2C)cc1 [Active ingredient No. 4] | – | Blood platelet agg. inh.: percentage inhibition of platelet aggregation (platelet): 20.5%
19 | CCCCCCCCc1ccc(C(=O)c2ccc(Br)cc2)cc1 [compound 151] | 15.3 | –
20 | Cc1ccc(C(=O)c2ccccc2Br)c(C)c1 [compound 146] | 23.1 | –
21 | COc1ccc(C(=O)c2ccccc2F)cc1 [compound 116] | 59.8 | –
22 | CCCc1ccc(C(=O)c2ccc(Br)cc2)cc1 [compound 150] | 14 | –
23 | CCCCCc1ccc(C(=O)c2ccccc2I)cc1 [compound 156] | 43 | –
24 | CCC(C)(C)c1ccc(C(=O)c2ccccc2F)cc1 [compound 122] | 39.3 | –
25 | CCCCCCCCc1ccc(C(=O)c2ccccc2Br)cc1 [compound 145] | 60.2 | –
26 | CCCCCCCCc1ccc(C(=O)c2cccc(Cl)c2)cc1 [compound 141] | 13.8 | –
27 | CC(C)c1ccc(C(=O)c2ccccc2F)cc1 [compound 117] | 53.3 | –
28 | CCCCCc1ccc(C(=O)c2ccc(F)cc2)cc1 [compound 128] | 33.6 | –
29 | CCCCCCCCc1ccc(C(=O)c2ccc(F)cc2)cc1 [compound 129] | 38.6 | –
30 | CCCCCCCCc1ccc(C(=O)c2ccccc2Cl)cc1 [compound 134] | 35.1 | –
31 | Cc1cc(C)c(C(=O)c2ccccc2Br)c(C)c1 [compound 147] | 20.4 | –
32 | CCCCCCCCc1ccc(C(=O)c2ccccc2I)cc1 [compound 157] | 37.4 | –
33 | CCCc1ccc(C(=O)c2ccccc2I)cc1 [compound 154] | 29 | –
34 | Cc1ccc(C(=O)c2ccccc2Cl)c(C)c1 [compound 135] | 37.2 | –
